Assay results published in patent EP4768484A1, “HETEROCYCLIC FUSED RING COMPOUND, AND COMPOSITION AND USE THEREOF” (Shenzhen TargetRx, Inc., priority 2023, dated 2025).

Columns and labels:
Format in all cases: cell-based
Ba/F3 parental cells = test: Cell growth inhibitory activity assay (CellTiter-Glo), Ba/F3 parental cells; settings: Mus musculus, BaF3, 72 h, CTG cell viability, read-out: IC50 Ba/F3 BCR-ABL1 Parental
Experimental: (§1) In this assay, the Celltiter-Glo (CTG) kit provided by Promega was used, and it is a homogeneous cell viability assay method. The cell viability of cultured cells was measured by quantifying ATP. K562 cells were purchased from Nanjing Kebai, product number CBP60529; Ba/F3 parental cells were purchased from RIKEN BRC, product number RCB0805; other cells containing BCR-ABL1 WT, BCR-ABL1 T315I, BCR-ABL1 T315M, BCR-ABL1 Y253H/E255K, BCR-ABL1 E255V/T3151, BCR-ABL1 A424T, BCR-ABL1 A337V, BCR-ABL1 P465S, BCR-ABL1 V468F, and BCR-ABL1 I502L were all monoclonal engineered cell lines obtained by transducting Ba/F3 parental cells with the lentivirus plasmids containing WT or corresponding mutated BCR-ABL1.
(§2) The steps of cell viability assay are as follows: • a) Cells in logarithmic growth phase were collected. Cell suspension was prepared and the cells were counted. Concentration of the cells was calculated. • b) The cell suspension was diluted to the required concentration and then added to the middle wells of a 96-well plate, and PBS was added to the edge wells. The wells with no cells and only culture medium were used as blank controls. • c) In addition to the cell plate used for compound analysis, another 96-well plate was prepared as a T0 plate, and 3-6 blank wells and 3-6 cell wells were added. The next day, CTG was used to test the cell viability as the T0 viability value of the cells. • d) The cell plate was incubated at 37 °C in a 5% CO2 incubator overnight. • e) The next day, each concentration of a compound subjected to a gradient dilution was added, and the cell plate was incubated at 37 °C in a 5% CO2 incubator for 72 h. The wells with no compound and only 0.5% DMSO were used as positive controls for cell growth. • f) CTG reagent (CellTiter-Glo kit) was added according to the manufacturer's instructions to test the cell viability value. • g) The plate was read using Biotek cytation3.0 microplate reader and the data were exported. • h) IC50 was calculated using GraphPad Prism 7.0 software.
(§3) The IC50 (half-maximal inhibitory concentration) of the compound was obtained using the following nonlinear fitting formula: Y = Bottom + (Top−Bottom)/(1+10^(∧)((LogIC50−X)*HillSlope)) [formula] • X: Log value of the compound concentration • Y: Inhibition rate (% inhibition) • Top: Maximum response • Bottom: Baseline response • HillSlope: Slope of the curve
(§4) The formula for calculating cell inhibition rate (inhibition rate %) was: [formula]

Ba/F3 BCR-ABL1 WT = target: T1, Ba/F3 BCR-ABL1 WT (Homo sapiens, UniProt P00519+P11274); test: Cell growth inhibitory activity assay (CellTiter-Glo), Ba/F3 BCR-ABL1 WT cells; settings: 72 h, CTG cell viability
T1 construct: BCR (N-terminal fusion partner of the oncoprotein); expressed in transfected cells; host or cells: Ba/F3 (lentiviral transduction, monoclonal line)
Experimental: as §1, §2, §3, §4

Ba/F3 BCR-ABL1 T315I = target: T2, Ba/F3 BCR-ABL1 T315I (Homo sapiens, UniProt P00519+P11274, T315I); test: Cell growth inhibitory activity assay (CellTiter-Glo), Ba/F3 BCR-ABL1 T315I cells; settings: 72 h, CTG cell viability
T2 construct: BCR (N-terminal fusion partner of the oncoprotein); expressed in transfected cells; host or cells: Ba/F3 (lentiviral transduction, monoclonal line)
Experimental: as §1, §2, §3, §4

K562 cells = test: Cell growth inhibitory activity assay (CellTiter-Glo), K562 cells; settings: Homo sapiens, 72 h, CTG cell viability
Experimental: as §1, §2, §3, §4

Row | Structure (SMILES) | IC50 (K562 cells) [nM] | IC50 (Ba/F3 parental cells) [nM] | IC50 (Ba/F3 BCR-ABL1 WT) [nM] | IC50 (Ba/F3 BCR-ABL1 T315I) [nM]
1 | O=C(Nc1ccc(OC(F)(F)Cl)cc1)c1cnc(N2CC[C@@H](F)C2)c(-c2cnc3c(c2)-c2nn(-c4nccc(-c5cccnc5)n4)cc2C3)c1 [T-9, (R)-N-(4-(chlorodifluoromethoxy)phenyl)-6-(3-fluoropyrrolidin-1-yl)-5-(2-(4-(pyridin-3-yl)pyrimidin-2-yl)-2,4-dihydropyrazolo[3',4':3,4]cyclopenta[1,2-b]pyridin-7-yl)nicotinamide] | ≤ 5 | > 1000 | ≤ 5 | ≤ 5
2 | O=C(Nc1ccc(OC(F)(F)Cl)cc1)c1cnc(N2CC[C@H](F)C2)c(-c2cnc3c(c2)-c2nn(-c4ncc(F)cn4)cc2C3)c1 [T-13, (S)-N-(4-(chlorodifluoromethoxy)phenyl)-5-(2-(5-fluoropyrimidin-2-yl)-2,4-dihydropyrazolo[3',4':3,4]cyclopenta[1,2-b]pyridin-7-yl)-6-(3-fluoropyrrolidin-1-yl)nicotinamide] | ≤ 5 | > 1000 | ≤ 5 | ≤ 5
3 | O=C(Nc1ccc(OC(F)(F)Cl)cc1)c1cnc(N2CC[C@@H](F)C2)c(-c2cnc3c(c2)-c2nn(-c4ncc(C(F)(F)F)cn4)cc2C3)c1 [T-15, (R)-N-(4-(chlorodifluoromethoxy)phenyl)-6-(3-fluoropyrrolidin-1-yl)-5-(2-(5-(trifluoromethyl)pyrimidin-2-yl)-2,4-dihydropyrazolo[3',4':3,4]cyclopenta[1,2-b]pyridin-7-yl)nicotinamide] | ≤ 5 | > 1000 | ≤ 5 | 5 to 50
4 | C[C@@H]1COCc2nc3cc(C(=O)Nc4ccc(OC(F)(F)Cl)cc4)cc(-c4cnc5c(c4)-c4nn(C)cc4C5)c3n21 [T-16, (R)-N-(4-(chlorodifluoromethoxy)phenyl)-4-methyl-6-(2-methyl-2,4-dihydropyrazolo[3',4':3,4]cyclopenta[1,2-b]pyridin-7-yl)-3,4-dihydro-1H-benzo[4,5]imidazo[2,1-c][1,4]oxazine-8-carboxamide] | ≤ 5 | > 1000 | ≤ 5 | ≤ 5
5 | N#Cc1ccc(-c2ccnc(-n3cc4c(n3)-c3cc(-c5cc(C(=O)Nc6ccc(OC(F)(F)Cl)cc6)cnc5N5CC[C@@H](F)C5)cnc3C4)n2)cn1 [T-19, (R)-N-(4-(chlorodifluoromethoxy)phenyl)-5-(2-(4-(6-cyanopyridin-3-yl)pyrimidin-2-yl)-2,4-dihydropyrazolo[3',4':3,4]cyclopenta[1,2-b]pyridin-7-yl)-6-(3-fluoropyrrolidin-1-yl)nicotinamide] | ≤ 5 | > 1000 | ≤ 5 | ≤ 5
6 | C[C@@H]1CCOc2nc3cc(C(=O)Nc4ccc(OC(F)(F)Cl)cc4)cc(-c4cnc5c(c4)C(=O)N(C)C5)c3n21 [T-24, (R)-N-(4-(chlorodifluoromethoxy)phenyl)-4-methyl-6-(6-methyl-5-oxo-6,7-dihydro-5H-pyrrolo[3,4-b]pyridin-3-yl)-3,4-dihydro-2H-benzo[4,5]imidazo[2,1-b][1,3]oxazine-8-carboxamide] | ≤ 5 | > 1000 | 5 to 50 | 50 to 1000
7 | O=C(Nc1ccc(OC(F)(F)Cl)cc1)c1cnc(N2CC[C@@H](F)C2)c(-c2cnc3c(c2)-c2nn(-c4nccc(N5CCOCC5)n4)cc2C3)c1 [T-34, (R)-N-(4-(chlorodifluoromethoxy)phenyl)-6-(3-fluoropyrrolidin-1-yl)-5-(2-(4-morpholinopyrimidin-2-yl)-2,4-dihydropyrazolo[3',4':3,4]cyclopenta[1,2-b]pyridin-7-yl)nicotinamide] | ≤ 5 | > 1000 | ≤ 5 | ≤ 5
8 | C[C@@H]1CN(C)Cc2nc3cc(C(=O)Nc4ccc(OC(F)(F)Cl)cc4)cc(-c4cnc5c(c4)C(=O)N(C4CC4)C5)c3n21 [T-36, (R)-N-(4-(chlorodifluoromethoxy)phenyl)-6-(6-cyclopropyl-5-oxo-6,7-dihydro-5H-pyrrolo[3,4-b]pyridin-3-yl)-2,4-dimethyl-1,2,3,4-tetrahydrobenzo[4,5]imidazo[1,2-a]pyrazine-8-carboxamide] | ≤ 5 | > 1000 | ≤ 5 | > 1000

More lines, main results first:

Row | IC50 (K562 cells) [nM] | Structure (SMILES) | IC50 (Ba/F3 parental cells) [nM] | IC50 (Ba/F3 BCR-ABL1 WT) [nM] | IC50 (Ba/F3 BCR-ABL1 T315I) [nM]
9 | ≤ 5 | CC(C)n1ncc2c1-c1cc(-c3cc(C(=O)Nc4ccc(OC(F)(F)Cl)cc4)cnc3N3CC[C@@H](F)C3)cnc1C2 [T-10-A, (R)-N-(4-(chlorodifluoromethoxy)phenyl)-6-(3-fluoropyrrolidin-1-yl)-5-(1-isopropyl-1,4-dihydropyrazolo[3',4':3,4]cyclopenta[1,2-b]pyridin-7-yl)nicotinamide] | > 1000 | 5 to 50 | 5 to 50
10 | ≤ 5 | CC(C)n1cc2c(n1)-c1cc(-c3cc(C(=O)Nc4ccc(OC(F)(F)Cl)cc4)cnc3N3CC[C@@H](F)C3)cnc1C2 [T-10-B, (R)-N-(4-(chlorodifluoromethoxy)phenyl)-6-(3-fluoropyrrolidin-1-yl)-5-(2-isopropyl-2,4-dihydropyrazolo[3',4':3,4]cyclopenta[1,2-b]pyridin-7-yl)nicotinamide] | > 1000 | ≤ 5 | ≤ 5
11 | ≤ 5 | Cc1cnc(-n2cc3c(n2)-c2cc(-c4cc(C(=O)Nc5ccc(OC(F)(F)Cl)cc5)cnc4N4CC[C@@H](F)C4)cnc2C3)nc1 [T-14, (R)-N-(4-(chlorodifluoromethoxy)phenyl)-6-(3-fluoropyrrolidin-1-yl)-5-(2-(5-methylpyrimidin-2-yl)-2,4-dihydropyrazolo[3',4':3,4]cyclopenta[1,2-b]pyridin-7-yl)nicotinamide] | > 1000 | ≤ 5 | ≤ 5
12 | ≤ 5 | COc1cnc(-n2cc3c(n2)-c2cc(-c4cc(C(=O)Nc5ccc(OC(F)(F)Cl)cc5)cnc4N4CC[C@@H](F)C4)cnc2C3)nc1 [T-17, (R)-N-(4-(chlorodifluoromethoxy)phenyl)-6-(3-fluoropyrrolidin-1-yl)-5-(2-(5-methoxypyrimidin-2-yl)-2,4-dihydropyrazolo[3',4':3,4]cyclopenta[1,2-b]pyridin-7-yl)nicotinamide] | > 1000 | ≤ 5 | ≤ 5
13 | ≤ 5 | O=C(Nc1ccc(OC(F)(F)Cl)cc1)c1cnc(N2CC[C@@H](F)C2)c(-c2cnc3c(c2)-c2nn(-c4nccc(-c5cncnc5)n4)cc2C3)c1 [T-22] | > 1000 | ≤ 5 | ≤ 5
14 | 5 to 50 | CC(C)n1cnc2cc(C(=O)Nc3ccc(OC(F)(F)Cl)cc3)cc(-c3cnccn3)c21 [T-23, N-(4-(chlorodifluoromethoxy)phenyl)-1-isopropyl-7-(pyrazin-2-yl)-1H-benzo[d]imidazole-5-carboxamide] | > 1000 | ≤ 5 | 50 to 1000
15 | ≤ 5 | Cn1ccc(-c2ccnc(-n3cc4c(n3)-c3cc(-c5cc(C(=O)Nc6ccc(OC(F)(F)Cl)cc6)cnc5N5CC[C@@H](F)C5)cnc3C4)n2)n1 [T-26, (R)-N-(4-(chlorodifluoromethoxy)phenyl)-6-(3-fluoropyrrolidin-1-yl)-5-(2-(4-(1-methyl-1H-pyrazol-3-yl)pyrimidin-2-yl)-2,4-dihydropyrazolo[3',4':3,4]cyclopenta[1,2-b]pyridin-7-yl)nicotinamide] | > 1000 | ≤ 5 | ≤ 5
16 | ≤ 5 | O=C(Nc1ccc(OC(F)(F)Cl)cc1)c1cnc(N2CC[C@@H](F)C2)c(-c2cnc3c(c2)-c2nn(-c4ncc5ccccc5n4)cc2C3)c1 [T-29, (R)-N-(4-(chlorodifluoromethoxy)phenyl)-6-(3-fluoropyrrolidin-1-yl)-5-(2-(quinazolin-2-yl)-2,4-dihydropyrazolo[3',4':3,4]cyclopenta[1,2-b]pyridin-7-yl)nicotinamide] | > 1000 | ≤ 5 | 5 to 50
